Source: patent publication US20050215531A1, “Use of edg receptor binding agents in cancer” (priority 2002, published 2005)
Counter-ions that a name gives are not always drawn.

Columns and labels:
[1] = test system: human MDA-MB-435 breast tumors; assay: Combination with a VEGF-R protein tyrosin kinase inhibitor, MDA-MB-435 breast tumors in nude mice; assay type: in vivo; settings: 2 weeks, Compound C HCl 2.5 mg/kg i.v. 5×/week, phthalazine succinate 100 mg/kg p.o. 5×/week, or both
Description: (§1) Antitumor activity is expressed as T/C% (mean increase in tumor volumes of treated animals divided by the mean increase of tumor volumes of control animals multiplied by 100).
Nude mice transplanted with human MDA-MB-435 breast tumors are treated for 2 weeks with a VEGF-R protein tyrosin kinase inhibitor, e.g. 1-(4-chloroanilino)-4-(4-pyridylmethyl)phthalazine succinate, at a dose of 100 mg/kg p.o. 5×/week, a S1P receptor agonist, e.g. Compound C (hydrochloride salt), at a dose of 2.5 mg/kg i.v. 5×/week, or a combination of both. Antitumor is expressed as T/C% as indicated above.

[2] = test system: human A375 melanoma cells; assay: Combination with a VEGF-R protein tyrosin kinase inhibitor, A375 melanoma in nude mice; assay type: in vivo; settings: treated in a similar way (same doses) alone or combined
[3] = test system: human A375 melanoma cells; assay: In vivo antitumor activity, A375 melanoma transplanted into BALB/c-nu/nu mice
Text: as §1
Aliquots of cancer cells (1×10^7), e.g. human A375 melanoma cells, are transplanted into BALB/c-nu/nu mice. When the tumors have reached ca. 10×10 mm in size, the animals are assigned randomly to four subgroups and the treatment with a compound of formula I is initiated. Animals are sacrificed after 2 week treatment, at which times tumors and tissues are harvested and prepared for morphological and molecular analysis. The size of the tumors is determined with a caliper.

HUVEC [4] = assay: S1P-mediated HUVEC tube formation assay; assay type: cell-based, human; settings: treatment alone; branching points in 3 independent fields at 4× magnification
Description: For the tube formation assay, HUVEC from passage 2-8 are used and are never greater than 70% confluent before harvesting. Cells are prepared for the assay by washing with Herpes Balanced Saline Solution (HBSS from Clonetics) and then trypsinizing with Trypsin/EDTA (0.25 mg/ml, from Clonetics). After approximately 90% of the cells have lifted off the plate, an equal volume of Trypsin Neutralizing Solution (TNS from Clonetics) is added and the cells are collected into a conical tube containing at least 10 ml of EBM-2 (Clonetics)+0.1% BSA (Sigma) media Cells are centrifuged at 1000 rpm for 5 minutes and the supematant is removed and replaced with 5 ml of fresh EBM-2+0.1% BSA. Cells are counted using a hemacytometer and the volume of the cell suspension is adjusted to achieve a concentration of 500,000 cells/ml. Conical tubes are prepared with test compounds at 100 nM, and pertussin toxin (PTx) at 10 ng/ml in each, then 1 ml of the cell suspension is added to each tube. Tubes are then incubated for ½ hour at 37° C., 5% CO2. The migration assay is performed using Fluoro-Blok 24-Multiwell insert Plates coated with fibronectin (8 μm pore size, Falcon #351147) instead of the individual inserts in a 24-well plate. Cells and test compounds are prepared and pre-incubated as described above, then 100 μl is added to each approriate well in the Insert Plate. 300 μl of the EBM-2+2% charcoastripped media without S1P is added to the bottoms of the wells marked for no stimulation (−), and 300 μl of the media containing S1P (500 nM) is added to the bottoms of the wells marked for stimulation (+). The plate is then incubated for 4 hours at 37° C., 5% CO2. […]
After incubation, the plate is read on a Cytofluor II at an excitation of 485 nm and emission of 530 nm. The Fluoro-Blok coating in the inserts allows only the cells that have migrated to the bottom to be counted. […]
Tube formation is quantitated by counting the number of branching points (two independent cords connecting) in 3 independent fields at 4× magnification.

tissue factor = assay: Clotting assay, tissue factor activity on HUVEC; assay type: cell-based, human; settings: compound alone or in combinations, 0.5-2 μM, 4 hours
Description: (§2) Human umbilical vein endothelial cells (HUVEC) are cultured at 37° C. and 5% CO2 in medium M199 supplemented with 20% SCS (HyClone, Logan, Utah), 1 U/ml heparin, 50 μg/ml ECGS, 2 mM glutamine, 100 U/ml penicillin and 0.1 mg/ml streptomycin. Cells are used for experiments up to passage number 5. Short-starved HUVEC are obtained by starving with 1% SCS-containing M199 for 5 h. Recombinant human VEGF165 is obtained from PromoCell (Heidelberg, Germany). Phospho-specific ERK½, p3B kinase polyclonal antibodies, nonphospho ERK½ antibodies and LumiGLO chemiluminescent reagent are from New England BioLabs (Beverly, Mass.), polyclonal IKB antibodies from Santa Cruz Biotechnology (Santa Cruz, Calif.). Peroxidase-conjugated donkey anti-rabbit immunoglobulin G (IgG) and sheep anti-mouse IgG are purchased from Amersham LIFE SCIENCE (Amersham Place, England). lmmobilon-P transfer membranes are products of Millipore (Bedford, Mass.). S is obtained from Sigma Chemical Co.; S1P is from Biomol. Compound A-phosphate stock solution is prepared by the following protocol. Compound A-phosphate is dissolved in methanol tracing with concentrated HCl (0.5 mg Compound A-phosphate in 500 μl of methanol plus 2 μl of HCl). Solvent from the resulting solution is evaporated under vacuum and the residue obtained is redissolved (variant 1) in 0.1% of defatted BSA solution in sterile deionized water (500 μl) or (variant 2) in 0.5% Triton X-100 in deionized water. The resulting stock solutions (2.5 mM) are sonicated and stored at 4° C.
Cells are seeded in 6-well plates at 80-90% confluency and grown overnight. Cells are scraped from the plates and analyzed for tissue factor activity according to the method as described in Clauss, M., J. Biol. Chem. 271,17629-17634 (1996), Mechtcheriakova, D., Blood 93,3811-3823 (1999). Briefly, after induction for 4 hours with VEGF (1.5 nM), TNF-α (100 U/ml), S (0.5-2 μM), S1P (0.5-2 μM), Compound A (0.5-2 μM), and Compound A-phosphate (0.5-2 μM), cells are washed twice and then scraped in 1 ml clotting buffer (12 mM sodium acetate, 7 mM diethylbarbitate and 130 mM sodium chloride; pH 7.4). 50 μl of resuspended cells are mixed with 50 μl of citrated plasma, and clotting times are determined after recalcfication with 50 μl of 20 mM CaCl2 solution at 37° C. TF-equivalents are determined by using a standard curve obtained from rabbit brain thromboplastin.
An important characteristic feature of both classical inflammatory stimulus TNF-α and the main angiogenic growth factor VEGF on endothellal cells is their potency to upregulate tissue factor. Compound A, Compound A-phosphate, S or S1P are tested whether they also do induce tissue factor on HUVEC. […] The data obtained together indicate that Compound A, Compound A-phosphate, S and S1P mechanistically work distinctly to anglogenic VEGF and inflammatory TNF-α.

HUVEC [5] = assay: In vitro angiogenesis (tube formation) assay on Matrigel; assay type: cell-based, human; settings: for effect on VEGF-triggered tube formation: high concentrations, 2-5 μM
Description: as §2
Morphogenesis of endothelial cells into capillary-like structures on Growth Factor Reduced Matrigel Matrix (BD Bioscience) is performed according to the manufacture procedure. Briefly, HUVEC are trypsinized, resuspended in serum-free Ml 99 medium containing soybean trypsin inhibitor (1 mg/ml, Sigma). After centrifugation cells are resuspended in serum-free medium at a density 0.5×10^5 cells/ml, and cell suspension is seeded in 96-well cell culture plates (Costar, Corning Incorporated) precoated with 50 μl of Matrigel in the absence or presence of various stimuli: VEGF at 1.5 nM, S1P at 0.1-2 μM, S at 0.5-2 μM, Compound A at 0.5-2 μM, and Compound A-phosphate at 0.1-2 μM. Eight hours later, cells on Matrigel are fixed with 3% formaldehyde in PBS and kept at 4° C. Results are quantitated from images made with a Nikon Diaphot microscope equipped with a cooled CCD camera (Kappa GmbH, Gleichen, Germany) by direct counting of branching points on two microscopic fields from each well done in duplicates.
The effect of Compound A and Compound A-phosphate on morphogenic differentiation of endothelial cells is determined using an in vitro angiogenesis assay on Matrigel. Endothelial cell morphogenesis is a complex process that requires cell-extracellular matrix interactions, followed by matrix remodelling, stimulated migration, cell-cell interactions, and perivascular proteolysis. […] This may be interpreted as a possible involvement of EDG-1 (S1P1) receptor-mediated signaling events in Compound A-phosphate-stimulated bioresponses (see e.g. FIG. 3). […] Importantly, high concentrations of S and Compound A (2-5 μM) inhibited VEGF-triggered tube formation.

ERK½ MAP kinases = assay: Western blot, activation of ERK½ MAP kinases in HUVEC; assay type: cell-based, human; settings: endothelial cells, 5 minute to 60 minute treatment
Description: as §2
After various treatments, the cells are washed twice with cold PBS, lysed in 100 μl of Laemmli buffer, scraped and heated for 5 min at 95° C. Total cell lysates are separated by SDS-PAGE and transferred to Immobilon-P membrane. The membrane is blocked for 30 minutes with PBS containing 0.1% Tween-20 and 3% skim milk and incubated for 1 hour at RT with a primary antibody diluted in blocking buffer. The membrane obtained is washed three times for 5 minutes with PBS containing 0.1% Tween-20 and incubated with peroxidase-conjugated secondary antibody for 1 hour at RT. After a washing step, the membrane is incubated for 1 minute with ECL reagent and exposed to film as required. For reprobing with another antibody, the membrane is washed twice in PBS, stripped for 30 min at 55° C. with stripping buffer (62.5 mM Tris-HCL, pH 6.8, 2% SDS, 100 mM 2-mercaptoethanol) and washed three times for 5 minutes with PBS at RT. The membrane is stored wet wrapped in SaranWrap at 4° C. after each immunodetection.
Signal transduction via MAP idnases plays a key role in a variety of endothelial cell functions. Treatment of HUVEC with Compound A-phosphate at 0.5 μM may result in transient activation of ERK½ with a peak of phosphorylation/activation at 10 minutes and returning to baseline by 20 minutes (see e.g. FIG. 5). No activation of p38 kinase and JNK½ by Compound A-phosphate is detectable in HUVEC. […] To estimate the possible role of inflammatory/NFκB-dependent program in Compound A-phosphatestimulated bioresponses of endothelial cells, the membranes are reprobed with anti-IκB antibodies. IκB levels are not affected by Compound A-phosphate treatment.

## Clc1ccc(Nc2nnc(Cc3ccncc3)c3ccccc23)cc1.O=C(O)CCC(=O)O [1-(4-chloroanilino)-4-(4-pyridylmethyl)phthalazine succinate, reference compound]
[1]
  T/C%: 91%
[2]
  T/C%: 44%

## CCCCCCCOc1ccc(CCC(C)(N)CO)cc1 (stereo not shown) [Compound C, 2-amino-4-(4heptyloxyphenyl)-2-methyl-butanol]
[3]; hydrochloride salt form, 0.5 to 5 mg/kg, 2 week treatment
  tumor growth vs saline control: slows tumor growth

## CCCCCCCOc1ccc(CCC(C)(N)CO)cc1 (stereo not shown) [Compound C—HCl, 2-amino-4-(4heptyloxyphenyl)-2-methyl-butanol]
[3]; 2.5 mg/kg 5×/week
  final T/C value: 30%
[1]
  T/C%: 66%
[2]
  T/C%: 35%

## CCCCCCCCCCCCC/C=C/[C@@H](O)[C@@H](N)COP(=O)(O)O [Compound S1P, sphingosine-1-phosphate, reference compound]
HUVEC [4]
  Branching Points: 42 ± 13
Tissue factor
  tissue factor activity: none of these compounds alone or in combinations may elevate tissue factor activity

## CCCCCCCCCCCCC/C=C/[C@@H](O)[C@@H](N)CO [S, sphingosine, reference compound]
HUVEC [5]; 1 μM
  effect on the VEGF-induced tube formation: without having an inhibitory effect
  effect on the ability of S1P and Compound A-phosphate to induce capillary-like structures: attenuates
HUVEC [5]; 1 μM, compared with S1P
  potency to induce capillary-like structures: less potent than S1P
HUVEC [5]
  effect on VEGF-triggered tube formation: inhibited
HUVEC [5]; listed as sphingosine
  effect on VEGF-triggered tube formation: inhibits
ERK½ MAP kinases
  MAP kinase activation: Neither Compound A nor S are able to induce MAP kinase activation
Tissue factor
  tissue factor activity: none of these compounds alone or in combinations may elevate tissue factor activity

## pertussis toxin [reference compound]
HUVEC [5]; PTX 50 ng/ml
  inhibition of Compound A-phosphate- and S1P-stimulated tube formation: practically completely inhibited
